Experimental data from ChEMBL document CHEMBL6127064, “Discovery of GNE-6893, a Potent, Selective, Orally Bioavailable Small Molecule Inhibitor of HPK1” (ACS Med Chem Lett, 2024).
≈ marks a conversion by molar mass, not a printed value.

Tests used:
[1] = target: T1, Mitogen-activated protein kinase kinase kinase kinase 1 (Homo sapiens, UniProt Q92918); test: Inhibition of HPK1 in primary human Pan T cells assessed as increase in IL-2 secretion pretreated for 30 mins followed by incubation with anti-CD3/anti-CD28 and measured after 4 hrs by MSD assay; format: cell-based, T cell
T1 sequence (Q92918 whole entry): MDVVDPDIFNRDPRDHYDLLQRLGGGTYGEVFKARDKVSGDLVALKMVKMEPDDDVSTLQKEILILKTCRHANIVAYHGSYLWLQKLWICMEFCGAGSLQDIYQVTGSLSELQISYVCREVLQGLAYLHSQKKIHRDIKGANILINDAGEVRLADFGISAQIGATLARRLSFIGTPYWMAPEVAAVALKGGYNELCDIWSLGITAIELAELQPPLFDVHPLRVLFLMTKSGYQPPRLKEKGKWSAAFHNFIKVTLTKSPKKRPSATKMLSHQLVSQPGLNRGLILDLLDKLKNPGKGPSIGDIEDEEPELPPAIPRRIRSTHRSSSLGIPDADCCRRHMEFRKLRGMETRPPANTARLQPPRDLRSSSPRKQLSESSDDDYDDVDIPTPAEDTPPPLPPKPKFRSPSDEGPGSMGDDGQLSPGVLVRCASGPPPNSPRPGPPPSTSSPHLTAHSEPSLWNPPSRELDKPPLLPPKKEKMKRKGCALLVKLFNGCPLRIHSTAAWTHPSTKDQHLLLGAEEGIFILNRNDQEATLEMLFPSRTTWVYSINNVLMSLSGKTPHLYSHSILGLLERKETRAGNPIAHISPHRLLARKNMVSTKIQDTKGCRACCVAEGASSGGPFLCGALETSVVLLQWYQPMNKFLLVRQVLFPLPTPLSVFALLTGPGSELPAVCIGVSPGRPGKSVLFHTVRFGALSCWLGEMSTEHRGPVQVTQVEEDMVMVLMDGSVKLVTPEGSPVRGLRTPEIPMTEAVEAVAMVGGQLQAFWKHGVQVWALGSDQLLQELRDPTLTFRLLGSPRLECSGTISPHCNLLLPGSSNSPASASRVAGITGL

[2] = target: T1, Mitogen-activated protein kinase kinase kinase kinase 1; test: Inhibition of HPK1 in human Jurkat cells assessed as inhibition of anti-CD3/anti-CD28-induced SLP76 phosporylation at Ser376 residue incubated for 30 mins by ELISA; format: cell-based
[3] = Clearance in Sprague-Dawley rat at 0.5 mg/kg, iv measured for 8 hrs by LC-MS/MS analysis; format: ADME, organism-based; conditions: in vivo
[4] = Volume of distribution at steady state in C57BL/6 mouse at 25 mg/kg, po or 1 mg/kg, iv measured for 24 hrs by LC-MS/MS analysis; format: ADME, organism-based; conditions: in vivo
[5] = Half life in Sprague-Dawley rat at 0.5 mg/kg, iv measured for 8 hrs by LC-MS/MS analysis; format: ADME, organism-based; conditions: in vivo
[6] = Apparent permeability of the compound across apical to basolateral side in dog MDCK1 cells at 10 uM by LC-MS/MS analysis; format: ADME, cell-based, Canis lupus familiaris; conditions: MDCK
[7] = Oral bioavailability in C57BL/6 mouse at 25 mg/kg measured for 24 hrs by LC-MS/MS analysis; format: ADME, organism-based; conditions: in vivo
[8] = Half life in C57BL/6 mouse at 25 mg/kg, po or 1 mg/kg, iv measured for 24 hrs by LC-MS/MS analysis; format: ADME, organism-based; conditions: in vivo
[9] = Volume of distribution at steady state in Sprague-Dawley rat at 0.5 mg/kg, iv measured for 8 hrs by LC-MS/MS analysis; format: ADME, organism-based; conditions: in vivo, read-out: Vdss
[10] = Inhibition of human full length HPK1-T165E/S171E mutant expressed in baculovirus expression system assessed as inhibition of SLP76 phosphorylation using biotinylated SLP76 as substrate preincubated for 30 mins followed by incubation with substrate in presence of ATP and measured for 60 mins by HTRF assay
[11] = Oral bioavailability in Sprague-Dawley rat; format: ADME, organism-based; conditions: in vivo
[12] = Kinetic solubility of the compound in PBS at pH 7.4; format: physicochemical; conditions: read-out: Kinetic_solubility

| Structure (SMILES) | EC50 [1] | IC50 [2] | clearance [3] | Vdss [4] | half-life [5] | Papp A→B at 10 µM [6] | F ([7]; mouse, po, 25 mg/kg, 24 h, BLD = below limit of detection) | half-life [8] | Vd [9] | Ki [10] | bioavailability [11] | bioavailability ([7]; C57BL/6, mouse) | solubility kinetic [12] |
| --- | --- | --- | --- | --- | --- | --- | --- | --- | --- | --- | --- | --- | --- |
| Cc1c(N)cncc1-c1cc2cc(Nc3cc4n(n3)CC(=O)N(C)CC4)ncc2c(N)c1F | 11 nM | 110 nM | 64 mL/min/kg | 1.3 L/kg | 34.2 min | 0.4 ×10⁻⁶ cm/s | Bld | 15.6 min | 2.2 L/kg |  |  |  |  |
| Cc1c(-c2cc3cc(NC(=O)OC4CCOCC4)ncc3c(N)c2F)cnc2c1NCCO2 | 39 nM | 97 nM | 17 mL/min/kg | 1.3 L/kg | 90 min | 18 ×10⁻⁶ cm/s |  | 66 min | 1.5 L/kg | < 0.019 nM | 16% | 31% | 1.5 µM (≈ 0.68 µg/mL) |
| Cc1ccncc1-c1cc2cc(Nc3cnn([C@@H](C)C#N)c3)ncc2c(N)c1F |  |  |  |  |  |  |  |  |  | 32 nM |  |  |  |
